What was measured:
[1] = system: LNCaP; assay: Inhibition of cells growth by colorimetric (SRB) assay, LNCaP; settings: for GI50 / CC50: Homo sapiens, LNCaP, 48 h; for GI50: read-out: GI50 LN-caP, SRB assay, 48 hours exposure; for CC50: read-out: LC50 LN-caP, SRB assay, 48 hours exposure; for TGI LN-caP: SRB assay, 48 hours exposure
Text: (§1) The finality of these assays is to interrupt the growth of a “in vitro” tumor cell culture by means a continued exhibition of the cells to the sample to be testing.
(§2) This form of the assay employs 96 well cell culture microplates of 9 mm diameter (Faircloth, 1988; Mosmann, 1983). Most of the cell lines are obtained from American Type Culture Collection (ATCC) derived from different human cancer types.
(§3) Cells are maintained in RPMI 1640 10% FBS, supplemented with 0.1 g/l penicillin and 0.1 g/l streptomycin sulphate and then incubated at 37° C., 5% CO2 and 98% humidity. For the experiments, cells were harvested from subconfluent cultures using trypsin and resuspended in fresh medium before plating.
(§4) Cells are seeded in 96 well microtiter plates, at 5×10^3 cells per well in aliquots of 195 μl medium, and they are allowed to attach to the plate surface by growing in drug free medium for 18 hours. Afterward, samples are added in aliquots of 5 μl in a ranging from 10 to 10^−8 μg/ml, dissolved in DMSO/EtOH/PBS (0.5:0.5:99). After 48 hours exposure, the antitumor effect are measured by the SRB methodology: cells are fixed by adding 50 μl of cold 50% (wt/vol) trichloroacetic acid (TCA) and incubating for 60 minutes at 4° C. Plates are washed with deionized water and dried. One hundred μl of SRB solution (0.4% wt/vol in 1% acetic acid) is added to each microtiter well and incubated for 10 minutes at room temperature. Unbound SRB is removed by washing with 1% acetic acid. Plates are air dried and bound stain is solubilized with Tris buffer. Optical densities are read on a automated spectrophotometric plate reader at a single wavelength of 490 nm.
(§5) The values for mean +/−SD of data from triplicate wells are calculated. Some parameters for cellular responses can be calculated: GI=growth inhibition, TGI=total growth inhibition (cytostatic effect) and LC=cell killing (cytotoxic effect).

[2] = system: DU-145; assay: Inhibition of cells growth by colorimetric (SRB) assay, DU-145; settings: for GI50 / CC50: Homo sapiens, DU-145, 48 h; for GI50: read-out: GI50 DU-145, SRB assay, 48 hours exposure; for CC50: read-out: LC50 DU-145, SRB assay, 48 hours exposure; for TGI DU-145: SRB assay, 48 hours exposure
Text: as §1, §2, §3, §4, §5

[3] = system: LoVo; assay: Inhibition of cells growth by colorimetric (SRB) assay, LoVo; settings: for GI50 / CC50: Homo sapiens, LoVo, 48 h; for GI50: read-out: GI50 LOVO, SRB assay, 48 hours exposure; for CC50: read-out: LC50 LOVO, SRB assay, 48 hours exposure; for TGI LOVO: SRB assay, 48 hours exposure
Text: as §1, §2, §3, §4, §5

[4] = system: IGROV-1; assay: Inhibition of cells growth by colorimetric (SRB) assay, IGROV-1; settings: for GI50 / CC50: Homo sapiens, IGROV-1, 48 h; for GI50: read-out: GI50 IGROV, SRB assay, 48 hours exposure; for CC50: read-out: LC50 IGROV, SRB assay, 48 hours exposure; for TGI IGROV: SRB assay, 48 hours exposure
Text: as §1, §2, §3, §4, §5

[5] = system: A-549; assay: Inhibition of cells growth by colorimetric (SRB) assay, A-549; settings: for GI50 / CC50: Homo sapiens, A549, 48 h; for GI50: read-out: GI50 A-549, SRB assay, 48 hours exposure; for CC50: read-out: LC50 A-549, SRB assay, 48 hours exposure; for TGI A-549: SRB assay, 48 hours exposure
Text: as §1, §2, §3, §4, §5

[6] = system: PANC-1; assay: Inhibition of cells growth by colorimetric (SRB) assay, PANC-1; settings: for GI50 / CC50: Homo sapiens, PANC-1, 48 h; for GI50: read-out: GI50 PANC-1, SRB assay, 48 hours exposure; for CC50: read-out: LC50 PANC-1, SRB assay, 48 hours exposure; for TGI PANC-1: SRB assay, 48 hours exposure
Text: as §1, §2, §3, §4, §5

[7] = system: HT-29; assay: Inhibition of cells growth by colorimetric (SRB) assay, HT-29; settings: for GI50 / CC50: Homo sapiens, HT-29, 48 h; for GI50: read-out: GI50 HT-29, SRB assay, 48 hours exposure; for CC50: read-out: LC50 HT-29, SRB assay, 48 hours exposure; for TGI HT-29: SRB assay, 48 hours exposure
Text: as §1, §2, §3, §4, §5

[8] = system: K-562; assay: Inhibition of cells growth by colorimetric (SRB) assay, K-562; settings: for GI50 / CC50: Homo sapiens, K562, 48 h; for GI50: read-out: GI50 K-562, SRB assay, 48 hours exposure; for CC50: read-out: LC50 K-562, SRB assay, 48 hours exposure; for TGI K-562: SRB assay, 48 hours exposure
Text: as §1, §2, §3, §4, §5

[9] = system: SK-OV-3; assay: Inhibition of cells growth by colorimetric (SRB) assay, SK-OV-3; settings: for GI50 / CC50: Homo sapiens, SK-OV-3, 48 h; for GI50: read-out: GI50 SKOV-3, SRB assay, 48 hours exposure; for CC50: read-out: LC50 SKOV-3, SRB assay, 48 hours exposure; for TGI SKOV-3: SRB assay, 48 hours exposure
Text: as §1, §2, §3, §4, §5

[10] = system: IGROV-ET; assay: Inhibition of cells growth by colorimetric (SRB) assay, IGROV-ET; settings: for GI50 / CC50: Homo sapiens, 48 h; for GI50: read-out: GI50 IGROV-ET, SRB assay, 48 hours exposure; for CC50: read-out: LC50 IGROV-ET, SRB assay, 48 hours exposure; for TGI IGROV-ET: SRB assay, 48 hours exposure
Text: as §1, §2, §3, §4, §5

[11] = system: SK-MEL-28; assay: Inhibition of cells growth by colorimetric (SRB) assay, SK-MEL-28; settings: for GI50 / CC50: Homo sapiens, SK-MEL-28, 48 h; for GI50: read-out: GI50 MEL-28, SRB assay, 48 hours exposure; for CC50: read-out: LC50 MEL-28, SRB assay, 48 hours exposure; for TGI MEL-28: SRB assay, 48 hours exposure
Text: as §1, §2, §3, §4, §5

[12] = system: LoVo-Dox; assay: Inhibition of cells growth by colorimetric (SRB) assay, LoVo-Dox; settings: for GI50 / CC50: Homo sapiens, 48 h; for GI50: read-out: GI50 LOVO-DOX, SRB assay, 48 hours exposure; for CC50: read-out: LC50 LOVO-DOX, SRB assay, 48 hours exposure; for TGI LOVO-DOX: SRB assay, 48 hours exposure
Text: as §1, §2, §3, §4, §5

With `Nc1nccc2c(-c3cccc([N+](=O)[O-])c3)c3cccnc3n12` [Compound 64] the GI50 [1] was 2.84 µM, the CC50 [1] was 19.9 µM and the “TGI LN-caP” value [1] was 7.89E−06. For the same compound, the GI50 [2] was 31 µM, the CC50 [2] was 32.8 µM and the “TGI DU-145” value [2] was 3.28E−05. For the same compound, the GI50 [3] was 23.3 µM, the CC50 [3] was 32.8 µM and the “TGI LOVO” value [3] was 3.28E−05. For the same compound, the GI50 [4] was 14.4 µM, the CC50 [4] was 32.8 µM and the “TGI IGROV” value [4] was 3.28E−05. For the same compound, the GI50 [5] was 31.6 µM, the CC50 [5] was 32.8 µM and the “TGI A-549” value [5] was 3.28E−05. For the same compound, the GI50 [6] was 20.9 µM, the CC50 [6] was 32.8 µM and the “TGI PANC-1” value [6] was 3.28E−05. The GI50 [7] was 32.8 µM, the CC50 [7] was 32.8 µM and the “TGI HT-29” value [7] was 3.28E−05. The GI50 [8] was 9.24 µM, the CC50 [8] was 32.8 µM and the “TGI K-562” value [8] was 2.47E−05. For the same compound, the GI50 [9] was 22.3 µM, the CC50 [9] was 32.8 µM and the “TGI SKOV-3” value [9] was 3.28E−05. For the same compound, the GI50 [10] was 18.9 µM, the CC50 [10] was 32.8 µM and the “TGI IGROV-ET” value [10] was 3.28E−05. The GI50 [11] was 21.7 µM, the CC50 [11] was 32.8 µM and the “TGI MEL-28” value [11] was 3.28E−05. For the same compound, the GI50 [12] was 22.7 µM, the CC50 [12] was 32.8 µM and the “TGI LOVO-DOX” value [12] was 3.28E−05.

`CC(C)c1c2cccnc2n2c(N)nccc12` [Compound 66] was tested, and the GI50 [1] was 12.5 µM, the CC50 [1] was at least 44.2 µM and the “TGI LN-caP” value [1] was 2.55E−05. The GI50 [2] was 10 µM, the CC50 [2] was at least 44.2 µM and the “TGI DU-145” value [2] was 2.59E−05. The GI50 [3] was 17.1 µM, the CC50 [3] was at least 44.2 µM and the “TGI LOVO” value [3] was 4.42E−05. For the same compound, the GI50 [4] was 9.99 µM, the CC50 [4] was 30.4 µM and the “TGI IGROV” value [4] was 1.74E−05. For the same compound, the GI50 [5] was 16.1 µM, the CC50 [5] was at least 44.2 µM and the “TGI A-549” value [5] was 4.42E−05. The GI50 [6] was 8 µM, the CC50 [6] was at least 44.2 µM and the “TGI PANC-1” value [6] was 2.16E−05. The GI50 [7] was 17.9 µM, the CC50 [7] was at least 44.2 µM and the “TGI HT-29” value [7] was 4.42E−05. For the same compound, the GI50 [8] was 21.6 µM, the CC50 [8] was at least 44.2 µM and the “TGI K-562” value [8] was 4.42E−05. For the same compound, the GI50 [9] was 15.7 µM, the CC50 [9] was at least 44.2 µM and the “TGI SKOV-3” value [9] was 3.04E−05. For the same compound, the GI50 [10] was 9.81 µM, the CC50 [10] was 39.8 µM and the “TGI IGROV-ET” value [10] was 1.98E−05. For the same compound, the GI50 [11] was 8.84 µM, the CC50 [11] was 39.6 µM and the “TGI MEL-28” value [11] was 1.87E−05. The GI50 [12] was 2.22 µM, the CC50 [12] was at least 44.2 µM and the “TGI LOVO-DOX” value [12] was 4.42E−05.

For `Nc1nccc2c(-c3ccnc(O)n3)c3cccnc3n12` [Compound 80], the GI50 [1] was 0.97 µM, the CC50 [1] was 2.79 µM and the “TGI LN-caP” value [1] was 1.65E−06. For the same compound, the GI50 [2] was 1.81 µM, the CC50 [2] was 35.9 µM and the “TGI DU-145” value [2] was 8.70E−06. For the same compound, the GI50 [3] was 4.06 µM, the CC50 [3] was 35.9 µM and the “TGI LOVO” value [3] was 1.48E−05. For the same compound, the GI50 [4] was 1.55 µM, the CC50 [4] was 24.8 µM and the “TGI IGROV” value [4] was 3.26E−06. The GI50 [5] was 7.73 µM, the CC50 [5] was 32.7 µM and the “TGI A-549” value [5] was 1.59E−05. The GI50 [6] was 8.41 µM, the CC50 [6] was 35.9 µM and the “TGI PANC-1” value [6] was 2.42E−05. The GI50 [7] was 2.45 µM, the CC50 [7] was 35.9 µM and the “TGI HT-29” value [7] was 3.59E−05. For the same compound, the GI50 [8] was 9.88 µM, the CC50 [8] was 35.9 µM and the “TGI K-562” value [8] was 3.59E−05. The GI50 [9] was 12.5 µM, the CC50 [9] was 35.9 µM and the “TGI SKOV-3” value [9] was 3.45E−05. The GI50 [10] was 2.48 µM, the CC50 [10] was 35.9 µM and the “TGI IGROV-ET” value [10] was 9.45E−06. The GI50 [11] was 2.42 µM, the CC50 [11] was 19.7 µM and the “TGI MEL-28” value [11] was 7.08E−06. For the same compound, the GI50 [12] was 4.2 µM, the CC50 [12] was 35.9 µM and the “TGI LOVO-DOX” value [12] was 2.01E−05.
